These results are taken from ChEMBL document CHEMBL1201862, “PubChem BioAssay data set” (2004).

Each structure is given as a SMILES string.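 In this assay, cells in 96-well plates receive the compound at five concentrations for 48 hours. Endpoints are linearly interpolated between the surrounding concentrations. Here, GI50 denotes the concentration required for 50% inhibition of growth.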 Activity calls are given as the source filed them. Cut-off read from the data, not from the text of the source: active = GI50 up to about 1.1 µM and inactive = higher. A value given as a limit tells only on which side of the number the result lay.

Holding throughout (assay): NCI-60 cell line screen, 48 h
For assay [1], the system named is SK-MEL-5.
In assay [2] the test system is SR.
For assay [3], the system named is A549.
Assay [4] concerns HOP-92.
The subject of assay [5] is NCI-H226.
Assay [6] relates to HT-29.
In assay [7] the test system is TK-10.
Assay [8] deals with IGROV-1.
Assay [9] relates to A498.
For assay [10], the system named is RXF 393.
Assay [11] concerns CAKI-1.
Assay [12] relates to MOLT-4.
In assay [13] the test system is NCI/ADR-RES.
For assay [14], the system named is OVCAR-4.
In assay [15] the test system is SF-268.
Assay [16] deals with MDA-N.
The subject of assay [17] is OVCAR-3.
The test system of assay [18] is KM12.
Assay [19] concerns ACHN.

With `N#Cc1nc(-c2ccccc2C(=O)O)oc1N`, the GI50 in assay [1], in assay [2], in [3], in assay [4], in assay [5] and in assay [6] was > 100 µM (inactive) each time. Besides, the GI50 in assay [7], in [8], in assay [9], in assay [10], in assay [11] and in [12] was > 100 µM (inactive) each time. The GI50 in assay [13], in assay [14], in assay [15], in assay [16], in assay [17] and in assay [18] was > 100 µM (inactive) in each case. In assay [19], the GI50 is > 100 µM (inactive).
`O=c1c(Cc2ccccc2)c(-c2ccccc2)[nH]n1C1=NCCN1`: the GI50 in [1] was 32.4 µM (inactive); in assay [2], 22.8 µM (inactive); in [3] it was 40.5 µM (inactive); in assay [4] it was 44.7 µM (inactive); in assay [5] it was 46 µM (inactive); in assay [6], 24.2 µM (inactive). Also, the GI50 is 37.6 µM (inactive) in assay [7]; 36.5 µM (inactive) in assay [8]; > 100 µM (inactive) in assay [9]; 92.9 µM (inactive) in assay [10]; 72.1 µM (inactive) in assay [11]; 35.5 µM (inactive) in assay [12]. For the same compound, the GI50 in assay [13] is 27.7 µM (inactive); in [14], 54.2 µM (inactive); in [15], 28.4 µM (inactive); in [16], 38.5 µM (inactive); in assay [17] it was 24.4 µM (inactive); in assay [18], 61 µM (inactive). Moreover, in [19], the GI50 is 29.3 µM (inactive).
With `CCC1CCC2c3c([nH]c4ccc(C)cc34)C3C(=O)N(N(C)C)C(=O)C3C2C1` (centres undefined), the GI50 in assay [1] was 12.8 µM (inactive); in assay [2] it was 3.17 µM (inactive); in assay [3], 15.9 µM (inactive); in assay [4], 38.7 µM (inactive); in [5], > 72.4 µM (inactive); in [6] it was 7.28 µM (inactive). The GI50 in assay [7] was 32.4 µM (inactive); in [8], 5.11 µM (inactive); in [9] it was > 100 µM (inactive); in assay [10], 8.05 µM (inactive); in [11], > 34.4 µM (inactive); in [12], 14.5 µM (inactive). For the same compound, the GI50 is 4.35 µM (inactive) in [13]; 34 µM (inactive) in [14]; 7.62 µM (inactive) in assay [15]; 1.09 µM (active) in assay [16]; 0.787 µM (active) in assay [17]; 6.52 µM (inactive) in assay [18]. For the same compound, the GI50 in [19] is 91.2 µM (inactive).
As for `COc1ccc2c3c(ccc2c1)NC(C(=O)O)CC3` (centres undefined), the GI50 in assay [1] was 27.4 µM (inactive); in assay [2], 18.5 µM (inactive); in assay [3], 62.1 µM (inactive); in [4] it was 79.4 µM (inactive); in assay [5] it was > 100 µM (inactive); in [6], 45.2 µM (inactive). Moreover, the GI50 in assay [7] was 52.1 µM (inactive); in assay [8] it was 40.8 µM (inactive); in [9] it was 27.7 µM (inactive); in [10], > 100 µM (inactive); in [11], 88.3 µM (inactive); in assay [12], 19.5 µM (inactive). In addition, the GI50 in [13] is 46.3 µM (inactive); in assay [14], 65.3 µM (inactive); in assay [15] it was 39.1 µM (inactive); in assay [16] it was 57.8 µM (inactive); in assay [17], 35.6 µM (inactive); in assay [18] it was 67.3 µM (inactive). Further, the GI50 in [19] was 73.8 µM (inactive).
Regarding `CCOC(=O)C1(Cc2ccc(C)cc2)Cc2ccc(C)cc2C1=O` (centres undefined), the GI50 in assay [1] was 6.4 µM (inactive); in assay [2] it was 3.61 µM (inactive); in [3] it was 20.9 µM (inactive); in [4], 14.6 µM (inactive); in [5], 35.2 µM (inactive); in assay [6], 5.43 µM (inactive). Also, the GI50 in [7] was 23.5 µM (inactive); in [8], 21.1 µM (inactive); in assay [9] it was 23.5 µM (inactive); in assay [10], 4.6 µM (inactive); in assay [11], 19.5 µM (inactive); in assay [12], 4.23 µM (inactive). Besides, the GI50 in [13] was 5.01 µM (inactive); in assay [14], 36.4 µM (inactive); in assay [15], 48.4 µM (inactive); in assay [16], 2.38 µM (inactive); in assay [17], 18.5 µM (inactive); in assay [18] it was 4.57 µM (inactive). Besides, the GI50 in assay [19] was 41.7 µM (inactive).
Take `Oc1ccc(CNCc2ccccc2)c2cccnc12`: the GI50 in assay [1] is 0.191 µM (active); in [2], 0.182 µM (active); in assay [3] it was 0.0875 µM (active); in [4], 0.177 µM (active); in assay [5], 5 µM (inactive); in assay [6] it was 4.11 µM (inactive). The GI50 in assay [7] was 0.282 µM (active); in assay [8] it was 0.292 µM (active); in assay [9] it was 0.354 µM (active); in assay [10], 0.116 µM (active); in [11] it was 0.48 µM (active); in assay [12], 0.215 µM (active). Moreover, the GI50 was 0.959 µM (active) in [13]; 0.421 µM (active) in assay [14]; 0.24 µM (active) in [15]; 0.0762 µM (active) in [16]; 0.217 µM (active) in assay [17]; 0.448 µM (active) in assay [18]. In [19], the GI50 was 0.182 µM (active).
Turning to `CCCCCCCCCC(=O)OCC1(CO)C/C(=C/CC(C(C)C)C(C)C)C(=O)O1` (centres undefined), the GI50 in assay [1] is 25.7 µM (inactive); in assay [2] it was 26.2 µM (inactive); in [3] it was 26.6 µM (inactive); in assay [4], > 100 µM (inactive); in [5] it was 74.5 µM (inactive); in [6], 31.6 µM (inactive). The GI50 is 77.6 µM (inactive) in assay [7]; 37.7 µM (inactive) in [8]; 53.3 µM (inactive) in assay [9]; > 100 µM (inactive) in [10]; 16 µM (inactive) in assay [11]; 14.5 µM (inactive) in assay [12]. In addition, the GI50 in assay [13] is > 100 µM (inactive); in assay [14] it was 61.2 µM (inactive); in assay [15], > 100 µM (inactive); in [16], 87.1 µM (inactive); in assay [17], > 100 µM (inactive); in assay [18] it was 10.2 µM (inactive). Also, in assay [19], the GI50 was 71.1 µM (inactive).
In the case of `OC1C2CCCCN2C[C@@H](O)[C@H]1O` (some centres undefined), the GI50 in assay [1], in [2], in [3], in [4], in [5] and in [6] was > 100 µM (inactive) each time. Further, the GI50 in assay [7], in assay [8], in [9], in assay [10], in assay [11] and in assay [12] was > 100 µM (inactive) each time. For the same compound, the GI50 in assay [13], in [14], in [15], in assay [16], in assay [17] and in assay [18] was > 100 µM (inactive) in each case. Moreover, the GI50 in assay [19] was > 100 µM (inactive).
For `C=CCN1C(=O)/C(=C/c2ccc(C)cc2)N=C1SC/C=C/C`, the GI50 was 22.7 µM (inactive) in [1]; 17.2 µM (inactive) in [2]; 21 µM (inactive) in assay [3]; 22.6 µM (inactive) in [4]; > 100 µM (inactive) in assay [5]; 29.1 µM (inactive) in [6]. The GI50 in assay [7] was > 100 µM (inactive); in assay [8], 51.6 µM (inactive); in assay [9], 24.3 µM (inactive); in assay [10] it was 11.5 µM (inactive); in [11], > 100 µM (inactive); in assay [12], 14.8 µM (inactive). Further, the GI50 in [13] is 47.3 µM (inactive); in [14], 41.9 µM (inactive); in [15], 33.2 µM (inactive); in assay [16], 22.8 µM (inactive); in assay [17], 40.8 µM (inactive); in assay [18], 27.8 µM (inactive). Also, the GI50 in assay [19] was 40.2 µM (inactive).
For the compound `CCOC(=O)C1=C(C)C(C(=O)OC)/C(=C/c2cccc3cccnc23)C1=O` (centres undefined), the GI50 in [1], in assay [2], in assay [3], in [4], in assay [5] and in assay [6] was > 10 µM (inactive) each time. In addition, the GI50 in assay [7], in assay [8], in assay [9], in assay [10], in [11] and in assay [12] was > 10 µM (inactive) in each case. The GI50 in assay [13], in assay [14], in [15], in [16], in [17] and in assay [18] was > 10 µM (inactive) in each case. The GI50 in assay [19] was > 10 µM (inactive).
As for `Cc1nc(N)nc(N)c1N1CCN(Cc2ccccc2)CC1`, the GI50 was > 37.8 µM (inactive) in assay [1]; 36.6 µM (inactive) in assay [2]; 3.56 µM (inactive) in assay [3]; 35.3 µM (inactive) in [4]; 12.1 µM (inactive) in assay [5]; 11.8 µM (inactive) in assay [6]. The GI50 in assay [7] was 66.1 µM (inactive); in assay [8], 19.9 µM (inactive); in [9], 42.5 µM (inactive); in assay [10] it was 13.4 µM (inactive); in assay [11] it was 37.1 µM (inactive); in [12], 29.7 µM (inactive). The GI50 in assay [13] was 12.8 µM (inactive); in [14], > 100 µM (inactive); in assay [15], 16.1 µM (inactive); in assay [16] it was 21.9 µM (inactive); in [17], 47.8 µM (inactive); in assay [18], 27 µM (inactive). For the same compound, the GI50 in assay [19] is 12.6 µM (inactive).
